Reference: the NIST ThermoML archive (doi:10.1021/acs.jced.8b00157)
“And” between values parts separate entries of the source, which are not always exact repeats. Identical values can stand only once.

Assay: an = ratio of the nth substance listed
Details: 100 kPa, Liquid, Buoyancy - hydrostatic balance, a2 = 1.3

[F][Al]([F])[F] [aluminum fluoride] + [F-].[K+]
Details | mass density
953.37 K | 1875 kg/m3
953.87 K | 1875 kg/m3
954.03 K | 1875 kg/m3
954.2 K | 1874 kg/m3
954.52 K | 1874 kg/m3
954.85 K | 1873 kg/m3
955.23 K | 1873 kg/m3
955.66 K | 1873 kg/m3
955.95 K | 1873 kg/m3
956.45 K | 1873 kg/m3
957 K | 1872 kg/m3
957.09 K | 1872 kg/m3
957.11 K | 1872 kg/m3
957.15 K | 1872 kg/m3
957.8 K | 1871 kg/m3
958.17 K | 1871 kg/m3
958.39 K | 1870 kg/m3
958.54 K | 1870 kg/m3
958.92 K | 1870 kg/m3
959.36 K | 1870 kg/m3
959.42 K | 1870 kg/m3
959.67 K | 1870 kg/m3
960.14 K | 1869 kg/m3
960.36 K | 1869 kg/m3
961.06 K | 1868 kg/m3
961.27 K | 1868 kg/m3
961.32 K | 1868 kg/m3
961.88 K | 1868 kg/m3
961.97 K | 1868 kg/m3
962.58 K | 1867 kg/m3
962.79 K | 1866 kg/m3
962.82 K | 1867 kg/m3
963.09 K | 1867 kg/m3
963.44 K | 1866 kg/m3
963.53 K | 1866 kg/m3
964.23 K | 1865 kg/m3
964.32 K | 1865 kg/m3
964.85 K | 1865 kg/m3
965.05 K | 1865 kg/m3
965.38 K | 1865 kg/m3
965.94 K | 1864 kg/m3
966 K | 1864 kg/m3
966.18 K | 1864 kg/m3
966.56 K | 1864 kg/m3
966.7 K | 1863 kg/m3
967.24 K | 1863 kg/m3
967.73 K | 1862 kg/m3
967.75 K | 1862 kg/m3
968.06 K | 1862 kg/m3
968.94 K | 1862 kg/m3
968.96 K | 1862 kg/m3
969.15 K | 1861 kg/m3
969.33 K | 1861 kg/m3
969.99 K | 1861 kg/m3
970.3 K | 1861 kg/m3
970.44 K | 1860 kg/m3
970.89 K | 1860 kg/m3
970.98 K | 1859 kg/m3
971.14 K | 1860 kg/m3
971.87 K | 1859 kg/m3
972.13 K | 1859 kg/m3
972.25 K | 1859 kg/m3
972.6 K | 1859 kg/m3
972.98 K | 1858 kg/m3
973.21 K | 1858 kg/m3
973.66 K | 1858 kg/m3
973.77 K | 1858 kg/m3
973.95 K | 1857 kg/m3
974.37 K | 1857 kg/m3
974.77 K | 1857 kg/m3
975.15 K | 1856 kg/m3
975.67 K | 1856 kg/m3
975.77 K | 1856 kg/m3
975.97 K | 1856 kg/m3
976.61 K | 1855 kg/m3
976.86 K | 1855 kg/m3
976.9 K | 1855 kg/m3
977.25 K | 1854 kg/m3
977.4 K | 1854 kg/m3
977.66 K | 1852 kg/m3
978.13 K | 1852 kg/m3
978.34 K | 1852 kg/m3
978.99 K | 1852 kg/m3
979.14 K | 1851 kg/m3
979.65 K | 1850 kg/m3
979.83 K | 1851 kg/m3
980.46 K | 1850 kg/m3
980.58 K | 1850 kg/m3
980.92 K | 1850 kg/m3
980.95 K | 1850 kg/m3
981.3 K | 1849 kg/m3
981.38 K | 1849 kg/m3
982.18 K | 1849 kg/m3
982.5 K | 1849 kg/m3
982.75 K | 1848 kg/m3
983.17 K | 1848 kg/m3
983.33 K | 1847 kg/m3
983.99 K | 1847 kg/m3
984.08 K | 1847 kg/m3
984.17 K | 1847 kg/m3
984.63 K | 1846 kg/m3
985 K | 1846 kg/m3
985.5 K | 1846 kg/m3
985.61 K | 1846 kg/m3
986.09 K | 1845 kg/m3
986.53 K | 1845 kg/m3
986.96 K | 1845 kg/m3
987.09 K | 1845 kg/m3
987.31 K | 1844 kg/m3
987.8 K | 1844 kg/m3
988.08 K | 1844 kg/m3
988.26 K | 1844 kg/m3
988.64 K | 1843 kg/m3
988.78 K | 1844 kg/m3
989.33 K | 1843 kg/m3
989.41 K | 1843 kg/m3
990.26 K | 1842 kg/m3
990.32 K | 1842 kg/m3
991.02 K | 1842 kg/m3
991.03 K | 1841 kg/m3
991.17 K | 1842 kg/m3
991.49 K | 1841 kg/m3
992.13 K | 1841 kg/m3
992.28 K | 1840 kg/m3
992.47 K | 1841 kg/m3
992.66 K | 1842 kg/m3
992.84 K | 1842 kg/m3
993.1 K | 1842 kg/m3
993.15 K | 1840 kg/m3
993.49 K | 1839 kg/m3
993.5 K | 1840 kg/m3
993.57 K | 1841 kg/m3
993.62 K | 1840 kg/m3
993.79 K | 1839 kg/m3
993.81 K | 1841 kg/m3
993.83 K | 1841 kg/m3
994.35 K | 1838 kg/m3
994.37 K | 1839 kg/m3
994.52 K | 1838 kg/m3
994.62 K | 1840 kg/m3
995.21 K | 1838 kg/m3
995.25 K | 1840 kg/m3
995.47 K | 1840 kg/m3
995.64 K | 1840 kg/m3
995.66 K | 1838 kg/m3
996.05 K | 1838 kg/m3
996.18 K | 1839 kg/m3
996.21 K | 1838 kg/m3
996.6 K | 1839 kg/m3
996.7 K | 1837 kg/m3
996.81 K | 1836 kg/m3
996.88 K | 1839 kg/m3
997.13 K | 1836 kg/m3
997.4 K | 1836 kg/m3
997.41 K | 1838 kg/m3
997.63 K | 1838 kg/m3
997.84 K | 1837 kg/m3
997.92 K | 1836 kg/m3
997.99 K | 1836 kg/m3
998.24 K | 1835 kg/m3
998.66 K | 1837 kg/m3
998.67 K | 1837 kg/m3
998.83 K | 1835 kg/m3
999.09 K | 1836 kg/m3
999.14 K | 1836 kg/m3
999.24 K | 1836 kg/m3
999.27 K | 1835 kg/m3
999.3 K | 1837 kg/m3
999.38 K | 1837 kg/m3
999.39 K | 1835 kg/m3
999.51 K | 1836 kg/m3
999.7 K | 1834 kg/m3
1000.2 K | 1834 kg/m3
1000.5 K | 1835 kg/m3
1000.8 K | 1833 kg/m3
1000.9 K | 1834 kg/m3
1001.1 K | 1835 kg/m3
1001.3 K | 1834 kg/m3
1001.4 K | 1833 kg/m3
1001.5 K | 1834 kg/m3
1001.6 K | 1833 kg/m3
1001.7 K | 1834 kg/m3
1002.2 K | 1832 kg/m3 and 1833 kg/m3
1002.4 K | 1833 kg/m3
1002.7 K | 1833 kg/m3
1002.9 K | 1832 kg/m3 and 1832 kg/m3
1003.4 K | 1832 kg/m3 and 1832 kg/m3
1003.5 K | 1831 kg/m3
1003.7 K | 1832 kg/m3
1004.2 K | 1831 kg/m3
1004.3 K | 1831 kg/m3 and 1830 kg/m3
1004.8 K | 1831 kg/m3 and 1830 kg/m3
1005 K | 1831 kg/m3
1005.1 K | 1831 kg/m3 and 1830 kg/m3
1005.6 K | 1830 kg/m3
1005.7 K | 1830 kg/m3
1006 K | 1829 kg/m3
1006.3 K | 1830 kg/m3
1006.4 K | 1830 kg/m3
1006.5 K | 1830 kg/m3 and 1829 kg/m3
1006.9 K | 1829 kg/m3 and 1827 kg/m3
1007 K | 1829 kg/m3
1007.1 K | 1828 kg/m3
1007.3 K | 1828 kg/m3
1007.4 K | 1828 kg/m3 and 1829 kg/m3
1007.7 K | 1827 kg/m3
1007.9 K | 1827 kg/m3
1008 K | 1827 kg/m3
1008.2 K | 1827 kg/m3
1008.3 K | 1828 kg/m3
1008.5 K | 1827 kg/m3
1008.8 K | 1827 kg/m3
1009 K | 1827 kg/m3
1009.2 K | 1827 kg/m3
1009.4 K | 1827 kg/m3
1009.6 K | 1826 kg/m3
1009.8 K | 1826 kg/m3
1010 K | 1825 kg/m3
1010.1 K | 1825 kg/m3
1010.3 K | 1825 kg/m3
1010.7 K | 1825 kg/m3
1010.9 K | 1825 kg/m3
1011 K | 1825 kg/m3
1011.1 K | 1825 kg/m3
1011.2 K | 1825 kg/m3
1011.3 K | 1824 kg/m3
1011.6 K | 1823 kg/m3
1011.7 K | 1824 kg/m3
1012 K | 1824 kg/m3
1012.2 K | 1824 kg/m3
1012.4 K | 1824 kg/m3
1012.5 K | 1824 kg/m3
1012.6 K | 1823 kg/m3
1012.9 K | 1824 kg/m3
1013.1 K | 1822 kg/m3
1013.4 K | 1823 kg/m3
